Several values for one entry are separate records, joined by “and”; a condition that tells them apart may be missing. Equal entries are not always repeated.
Assays:
[1] = tested on: AVA5 cell line (derived from human hepatoblastoma cell line Huh7); assay: Primary screen cytotoxicity: neutral red dye uptake; format: cell-based; details: for Neutral Red % Control / Neutral Red O.D.: AVA5
Protocol: (§1) Primary in vitro anti-HCV screen. The antiviral activity of test compounds were assayed in the stably HCV RNA-replicating cell line, AVA5, derived by transfection of the human hepatoblastoma cell line, Huh7 (Blight, et al., 2000, Science 290: 1972). The test compounds were added to dividing cultures once daily for three days. The media was changed with each addition of the compounds. Cultures generally start the assay at 30–50% confluence and reach confluence during the last day of treatment.
(§2) Assays were conducted using a single dose of test compound. Duplicate cultures for HCV RNA levels (on 48-well plates) and triplicate cultures for cytotoxicity (on 96-well plates) are used.
(§3) Intracellular HCV RNA levels were measured using a commercial assay (Veresant®, Bayer Diagnostics, Inc. Ross, et al. (2002) J. Virol. Meth. 101:159–168, Quantitation of hepatitic C virus RNA by third generation branched DNA-based signal amplification assay). Cytotoxicity was measured using an established neutral red dye uptake assay (Korba, B. E. and J. L. Gerin. 1992. Use of a standardized cell culture assay to determine activities of nucleoside analogs against hepatitis B virus relication. Antivir. Res. 19:55–70). HCV RNA levels in the treated cultures are expressed as a percentage of the mean levels of RNA detected in untreated cultures. A level of 30% or less, HCV RNA relative to control cultures may be considered to be a positive antiviral effect. A level of 50% or less, neutral red dye uptake relative to control cultures may be considered to be a cytotoxic effect.

[2] = as above; format: cell-based, human; details: human; toxicity control, no antiviral activity; read-out: approximate CC90
Protocol: as §1, §2, §3

[3] = Secondary dose-response assay: cytotoxicity (CC50); details: human
Protocol: (§4) Dividing cultures of AVA5 cells are treated once daily for three days (media is changed with each addition of compound) with 4 concentrations of test compound (2 cultures per concentration). […] Intracellular HCV RNA levels and cytotoxicity are assessed 24 hours following the last treatment as described for the primary assays. The 50% and 90% effective antiviral concentrations (EC50, EC90) and the 50% cytotoxic concentrations (CC50) are calculated and used to generate Selectivity Indexes (S.I., CC50/EC50). An S.I of 10, or greater, may be considered to be a selective antiviral effect.
(§5) The values presented in Table 6 were calculated by linear regression analysis using data from all treated cultures. The standard deviation was calculated using the error of regression generated from the linear regression analysis.

[4] = tested on: HCV RNA in stably HCV RNA-replicating cell line AVA5; assay: Primary in vitro anti-HCV screen: intracellular HCV RNA levels in AVA5 cells (branched DNA assay); format: cell-based, Hepatitis C virus; details: for HCV % Control / HCV Copies/ml: AVA5, duplicate cultures
Protocol: Primary in vitro anti-HCV screen. The antiviral activity of test compounds were assayed in the stably HCV RNA-replicating cell line, AVA5, derived by transfection of the human hepatoblastoma cell line, Huh7 (Blight, et al., 2000, Science 290: 1972). The test compounds were added to dividing cultures once daily for three days. The media was changed with each addition of the compounds. […] Intracellular HCV RNA levels and cytotoxicity are assessed 24 hours after the last dose of compound.
as §2, §3

[5] = tested on: HCV replicons in AVA5 cell cultures; assay: Secondary in vitro anti-HCV dose-response assay: intracellular HCV RNA; parameters: Intracellular HCV RNA Levels: dose or concentration left out as unconfirmed; details: for Intracellular HCV RNA Levels: normalized to β-actin RNA; for S.I. (CC50/EC90): selectivity index, AVA5
Protocol: as §4, §5
Analysis of intracellular HCV RNA was performed 24 hours following the final treatment. A total of […] were treated a each concentration for each compound. HCV RNA levels were normalized to the level of β-actin RNA in each individual sample.

[6] = tested on: HCV RNA-replicating cell line AVA5; assay: Normalized Viral Assay; format: cell-based, Hepatitis C virus
Protocol: as §1

AVA5 cells = assay: Secondary dose-response assay: cytotoxicity (CC50); details: AVA5, three days treatment; linear regression
Protocol: as §4, §5

AVA5 cell line [7] = assay: ATP Cell Viability
AVA5 cell line [8] = assay: MTS Cell Viability
[9] = AVA5, HCV RNA, linear regression

## NC(=O)c1ncn([C@@H]2O[C@H](CO)[C@@H](O)[C@H]2O)n1 [Ribavirin, ribavirin, reference compound]
[1]; 100 μM
  Neutral Red % Control: 18 % Control and 17 % Control
  Neutral Red O.D.: 0.394 O.D. and 0.378 O.D.
[1]; compared with the loss of HCV RNA
  effect on cell viability (treatment control, in words): reduction in cell viability was nearly equivalent
[2]
  CC90 at 3 days: ~100 µM
[3]
  CC50 at 3 days: 54 ± 2.4 µM
[4]; 100 μM
  HCV % Control: 13 % Control and 9 % Control
  HCV Copies/ml: 180813 Copies/ml and 115331 Copies/ml
[4]; at the control concentrations used
  effect on HCV RNA (treatment controls, in words): induced loss of HCV RNA
[5]; 10
  Intracellular HCV RNA Levels: 1379495 ± 69125 genomic copies/cell
[5]; 30
  Intracellular HCV RNA Levels: 640505 ± 29715 genomic copies/cell
[5]; 100
  Intracellular HCV RNA Levels: 250445 ± 5015 genomic copies/cell
[5]; Hepatitis C virus, Ava5
  EC50: 29 ± 2.5 µM
  EC90: 140 ± 11 µM
[5]
  S.I. (CC50/EC90): 1.9

## O=c1cc(Sc2c(Cl)cccc2Cl)c2cc(F)ccc2o1 [compound 902]
[6]; 1 μM
  Normalized Viral Assay: 41.92
[6]; 5 μM
  Normalized Viral Assay: 12.03
[6]; 10 μM
  Normalized Viral Assay: 5.61
[1]; 10 μM, dye uptake relative to untreated cultures, listed as VQ_902
  Neutral Red % Control: 95 % Control and 100 % Control
[1]; 10 μM, listed as VQ_902
  Neutral Red O.D.: 2.122 O.D. and 2.228 O.D.
AVA5 cells
  CC50: > 300 µM
AVA5 cell line [7]; 1 μM
  ATP Cell Viability: 97.96
AVA5 cell line [7]; 5 μM
  ATP Cell Viability: 101.74
AVA5 cell line [7]; 10 μM
  ATP Cell Viability: 62.95
[4]; 10 μM, HCV RNA as percentage of untreated cultures, listed as VQ_902
  HCV % Control: 9 % Control and 7 % Control
[4]; 10 μM, once daily for three days, listed as VQ_902
  HCV Copies/ml: 124712 Copies/ml and 92446 Copies/ml
[5]; 10
  Intracellular HCV RNA Levels: 919880 ± 44000 genomic copies/cell
[5]; 30
  Intracellular HCV RNA Levels: 332975 ± 6745 genomic copies/cell
[5]; 100
  Intracellular HCV RNA Levels: 91645 ± 7385 genomic copies/cell
[5]; 300
  Intracellular HCV RNA Levels: 12940 ± 5640 genomic copies/cell
[5]; [9]
  EC50: 0.491 ± 0.024 µM
  EC90: 5.2 ± 0.6 µM
[5]
  S.I. (CC50/EC90): >611
AVA5 cell line [8]; 1 μM
  MTS Cell Viability: 116.05
AVA5 cell line [8]; 5 μM
  MTS Cell Viability: 86.70
AVA5 cell line [8]; 10 μM
  MTS Cell Viability: 84.52
